Experimental data as given in patent US10174000B2, “Bicyclic-fused heteroaryl or aryl compounds as IRAK4 modulators” (PFIZER INC., priority 2015, dated 2019).

Legend:
[1] = molecular target: human IRAK4 FL (Full Length), phosphorylated (Homo sapiens (Human), UniProt Q9NWZ3); assay: IRAK4 Enzymatic DELFIA Assay, Protocol A; format: biochemical; details: 600 μM ATP (KM); full-length phosphorylated recombinant human IRAK4
Method: IRAK4 Enzymatic DELFIA Assay, Protocol A.
This is an in vitro assay to measure IRAK4 enzymatic activity utilizing the DELFIA (Dissociation-Enhanced Lanthanide Fluorescent Immunoassay, Perkin-Elmer) platform, with the human IRAK4 FL (Full Length) construct to characterize IRAK4 inhibitor and control compounds at 600 μM ATP (KM). The final amount of enzyme in the assay is 0.1 nM IRAK4 FL, final concentration of substrate is 50 nM, and final concentration of DMSO is 2.5%.
The test compound was solubilized in DMSO to a stock concentration of 30 mM. The dose response plates were prepared with a 4 mM primary compound concentration (40-fold multiple of the final in-assay concentration), and diluted in DMSO in a four-fold series for a total of 11 data points. 1 μL of the compound dilution plate is spotted into ultra-clear polypropylene, 384-well, U-bottom plates (Corning Life Sciences).
To begin the assay, 19 μL of reaction mixture containing 20 mM HEPES pH=7.5, 5 mM MgCl2, 0.0025% Brij-35, 600 μM ATP, 0.21 nM Full-length phosphorylated recombinant human IRAK4 (GenBank ID AF445802) are aliquoted into the polypropylene, 384-well, U-bottom plates containing 1 μL of test compound, mixed briefly and incubated for 20 minutes at room temperature (RT). Then, 20 μL of 20 mM HEPES pH=7.5, 5 mM MgCl2, 0.0025% Brij-35, 600 μM ATP, and 100 nM ERM-biotinylated peptide (AGAGRDKYKTLRQIR) is added to start the reaction. The reaction is incubated for 60 minutes at RT and stopped by the addition of 20 μL 0.3M EDTA.
(§1) 50 μL of the reaction mixture was transferred to a streptavidin-coated detection plate (DELFIA streptavidin coated plates, 384-well, white plates, Perkin-Elmer Life Sciences) and incubated for 30 minutes at RT. The plates were washed 4× with 75 μL per well of PBS containing 0.05% Tween-20. Plates were then incubated with 50 μL per well of antibody cocktail of Anti-pERM antibody at 0.125 μg/mL (Cell Signaling Technology), plus Anti-Rabbit IgG EuN1 at 0.25 μg/ml (Perkin-Elmer Life Sciences) in a solution of 10 mM MOPS pH=7.5, 150 mM NaCl, 0.05% Tween-20, 0.02% NaN3, 1% BSA, 0.1% Gelatin for 45 minutes. The plates were then washed as before. 50 μL per well of DELFIA Enhancement Solution (Perkin-Elmer Life Sciences) was added to the plate and incubated for 15 minutes at RT prior to being read on an Envision Model 2104 multi-label reader using a 340 nm excitation wavelength and a […] emission wavelength for detection.

[2] = molecular target: inactive, unphosphorylated (0-phos), human IRAK4 FL (Full Length) (Homo sapiens (Human), UniProt Q9NWZ3); assay: IRAK4 Enzymatic DELFIA Assay, Protocol B; format: biochemical; details: 600 μM ATP (KM), full-length recombinant human IRAK4
Method: IRAK4 Enzymatic DELFIA Assay, Protocol B.
The test compound is solubilized in DMSO to a stock concentration of 30 mM. The dose response plates were prepared with a 4 mM primary compound concentration, serialized in DMSO and spotted (1 μL) into 384-well polypropylene plates as before.
20 uL of 20 mM HEPES pH=7.5, 5 mM MgCl2, 0.0025% Brij-35, 600 μM ATP, and 100 nM ERM-biotinylated peptide (AGAGRDKYKTLRQIR) was added to start the reaction, which was run for 90 minutes at RT and stopped by the addition of 20 μL 0.3M EDTA.
as §1

Sequence of human IRAK4 FL (Full Length), phosphorylated (Q9NWZ3 whole entry): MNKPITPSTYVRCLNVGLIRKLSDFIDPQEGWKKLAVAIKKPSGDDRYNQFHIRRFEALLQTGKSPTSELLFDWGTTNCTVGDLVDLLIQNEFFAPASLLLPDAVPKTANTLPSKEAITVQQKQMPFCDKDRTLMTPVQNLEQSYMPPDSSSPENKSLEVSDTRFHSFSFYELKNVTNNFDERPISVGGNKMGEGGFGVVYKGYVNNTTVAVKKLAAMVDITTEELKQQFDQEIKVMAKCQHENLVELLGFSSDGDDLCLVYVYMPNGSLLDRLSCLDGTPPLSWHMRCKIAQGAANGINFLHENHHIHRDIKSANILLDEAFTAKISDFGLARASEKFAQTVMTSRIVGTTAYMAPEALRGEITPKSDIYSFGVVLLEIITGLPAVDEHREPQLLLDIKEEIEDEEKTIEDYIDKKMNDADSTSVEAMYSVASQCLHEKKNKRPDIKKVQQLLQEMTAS
Sequence of inactive, unphosphorylated (0-phos), human IRAK4 FL (Full Length) (Q9NWZ3 whole entry): as above

| Compound | IC50 [1] [nM] | IC50 [2] [nM] |
| --- | --- | --- |
| COc1cc2c(OC[C@]34C[C@H]3CC(=O)N4)nccc2cc1C(N)=O [Example 30, 7-methoxy-1-{[(1S,5S)-3-oxo-2-azabicyclo[3.1.0]hex-1-yl]methoxy}isoquinoline-6-carboxamide] | 4300 | 151 |
| Cc1coc(-c2cnc(OC[C@@H]3CCC(=O)N3)c3cc(OC(C)C)c(C(N)=O)cc23)n1 [Example 6, 4-(4-Methyl-1,3-oxazol-2-yl)-1-{[(2S)-5-oxopyrrolidin-2-yl]methoxy}-7-(propan-2-yloxy)isoquinoline-6-carboxamide] | 227 | 3 |
| CC[C@@H]1CC(=O)N[C@@H]1COc1cncc2cc(C(N)=O)c(OC)cc12 [Example 25, 4-(((2S,3R)-3-ethyl-5-oxopyrrolidin-2-yl)methoxy)-6-methoxyisoquinoline-7-carboxamide] | 47 | 2.7 |
| CC(C)Oc1cc2c(OC[C@@H]3NC(=O)[C@@H](F)C34CC4)nccc2cc1C(N)=O [Example 16, 1-(((4R,7S)-7-fluoro-6-oxo-5-azaspiro[2.4]heptan-4-yl)methoxy)-7-isopropoxyisoquinoline-6-carboxamide] | 4500 | 390 |
| COc1cc2c(OC[C@H]3NC(=O)[C@H](F)C34CC4)nccc2cc1C(N)=O [Example 21, 1-(((4S,7R)-7-fluoro-6-oxo-5-azaspiro[2.4]heptan-4-yl)methoxy)-7-methoxyisoquinoline-6-carboxamide] | 38.5 | 21 |
| Cc1cnc(-c2cnc(OC[C@@H]3CCC(=O)N3)c3cc(OC(C)C)c(C(N)=O)cc23)o1 [Example 9, 4-(5-Methyl-1,3-oxazol-2-yl)-1-{[(2S)-5-oxopyrrolidin-2-yl]methoxy}-7-(propan-2-yloxy)isoquinoline-6-carboxamide] | 89 | 4.3 |

These reach a lower IC50 [1]. Values come first.

| IC50 [1] [nM] | IC50 [2] [nM] | Compound |
| --- | --- | --- |
| 3.7 | 1.1 | CC(C)Oc1cc2c(OC[C@@H]3CCC(=O)N3)ncc(-c3cnn(C)c3)c2cc1C(N)=O [Example 5, 4-(1-methyl-1H-pyrazol-4-yl)-1-{[(2S)-5-oxopyrrolidin-2-yl]methoxy}-7-(propan-2-yloxy)isoquinoline-6-carboxamide] |
| 7.7 | 0.3 | CC[C@@H]1[C@H](F)C(=O)N[C@@H]1COc1cncc2cc(C(N)=O)c(OC)cc12 [Example 26, 4-(((2S,3S,4S)-3-ethyl-4-fluoro-5-oxopyrrolidin-2-yl)methoxy)-6-methoxyisoquinoline-7-carboxamide] |
| 0.8 | 0.1 | CC[C@@H]1[C@H](F)C(=O)N[C@@H]1COc1cccc2cc(C(N)=O)c(OC)cc12 [Example 27, 5-(((2S,3S,4S)-3-ethyl-4-fluoro-5-oxopyrrolidin-2-yl)methoxy)-3-methoxy-2-naphthamide] |
